According to US20230116137A1, “METHODS FOR TREATING COLORECTAL AND METASTATIC COLORECTAL CANCERS” (Isofol Medical AB, priority 2017, published 2023):
Where a name gives a salt, the structure may show the parent alone. Read-outs that look alike come from different tables or passages of the source.

Key:
[1] = tested on: solid tumours; details: cited from earlier work
[2] = tested on: colorectal tumors; details: cited from earlier work
[3] = tested on: solid tumors of stage IV metastatic colorectal cancer; experiment: Treatment of patients diagnosed with stage IV metastatic colorectal cancer with bevacizumab, oxaliplatin, 5-FU and 6R-MTHF; CT measurement of lesions, RECIST 1.1; format: in vivo, human
Description: The ORR may be calculated as follows: ORR=sum of partial responses plus complete responses as per RECIST 1.1 (a set of published rules that define when tumours in cancer patients progress during treatments)([Eisenhauer E A, Therasse P, Bogaerts J, Schwartz L H, Sargent D, Ford R, et al. New response evaluation criteria in solid tumours: revised RECIST guideline (version 1.1). Eur J Cancer. 2009 January; 45(2):228-47; incorporated by reference in its entirety]. As defined herein, a “complete response (CR)” means the disappearance of all target lesions. Any pathological lymph nodes (whether target or non-target) must have reduction in short axis to <10 mm. As used herein, a “partial response (PR)” means at least a 30% decrease in the sum of diameters of target lesions, taking as reference the baseline sum diameters.As used herein, “progressive disease (PD)” means at least a 20% increase in the sum of diameters of target lesions, taking as reference the smallest sum on study (this includes the baseline sum if that is the smallest on study). […] The appearance of one or more new lesions is also considered progression.
(§1) Bevacizumab was administered at a dose of 5 mg/kg by intravenous infusion over 30 to 90 minutes. Following administration of bevacizumab, oxaliplatin was administered at a dose of 85 mg/m^2 by intravenous infusion between 15 and 120 minutes. Following oxaliplatin administration, 5-fluorouracil (5-FU) at a dose of 400 mg/m^2 was administered by intravenous bolus within 5 minutes. Thirty minutes after administration of the 5-FU intravenous bolus, 6R-MTHF at a dose of 60 mg/m^2 was administered by intravenous bolus (completed within 3 minutes). About 5 minutes after completion of the 6R-MTHF intravenous bolus administration, an intravenous infusion of 5-FU at a dose of 2,400 mg/m^2 was initiated. The infusion was paused to administer an intravenous bolus of 6R-MTHF at a dose of 60 mg/m^2 (completed within 3 minutes). The 5-FU infusion was maintained for 46 hours.
as §1, §1

[4] = tested on: pancreas cancer; details: CoFactor combined with 5-FU, phase I/II; cited from earlier work
[5] = tested on: colorectal cancer; details: Phase IIb study; cited from earlier work
[6] = tested on: metastatic colorectal cancer; details: Phase II trial, previously untreated metastatic colorectal cancer; cited from earlier work

For `O=c1[nH]cc(F)c(=O)[nH]1` [5-FU, 5-fluorouracil], the overall response rate ([1]; 5-FU alone) is given as 10-15% and the response rate ([2]; 5-FU given as a monotherapy) is given as “around 10%”.

With `Nc1nc2c(c(=O)[nH]1)N1CN(c3ccc(C(=O)N[C@@H](CCC(=O)O)C(=O)O)cc3)C[C@H]1CN2` [6R-MTHF, [6R]-5,10-methylene tetrahydrofolate] the tumor response ([3]; Example 2 patient, second-line, 8-week treatment period) was “stable disease”, the “size of lesions (CT)” value ([3]; Example 2 patient, second-line, baseline 25, 13 and 12 mm (abdomen), after 8 weeks (CT at 10 weeks plus 2 days)) was “unchanged in size” and the size of lesion ([3]; Example 3 patient, second-line, 9 mm lesion, between 16 and 24 weeks) was “unchanged in size”. For the same molecule, the tumor response ([3]; Example 3 patient, second-line, after 8 weeks) was “partial response and no progression”, the tumor response ([3]; Example 3 patient, second-line, after 16 weeks) was “partial response and no progression” and the “fate of 10 mm lesion” value ([3]; Example 3 patient, second-line, baseline 10 and 16 mm (liver and lung), 8 weeks) was “disappearance”. The “size of lesion (CT-verified)” value ([3]; Example 3 patient, second-line, baseline 16 mm lesion, 8 weeks) was 13 mm, the tumor response ([3]; Example 3 patient, second-line, between 16 and 24 weeks) was “no progression” and the “size of lesion (CT-verified)” value ([3]; Example 3 patient, second-line, lesion 16 mm at baseline, 13 mm at 8 weeks, after 16 weeks) was 9 mm. For the same molecule, the tumor response ([3]; Example 4 patient, second-line, 8-week treatment period) was “stable disease”, the size of lesion ([3]; Example 4 patient, second-line, baseline 35 mm (liver), after 8 weeks) was “unchanged in size” and the size of lesion ([3]; Example 4 patient, second-line, baseline 35 mm (liver), after 16 and 24 weeks) was “unchanged in size”. The tumor response ([3]; Example 4 patient, second-line, through 24 weeks) was “no progression”, the size of lesion ([3]; Example 5 patient, second-line, baseline 80 mm (liver), after 8 weeks) was 96 mm and the tumor response ([3]; Example 6 patient, second-line, 8-week treatment period) was “stable disease”. For the same molecule, the size of lesion ([3]; Example 6 patient, second-line, 41 mm lesion (baseline 44 mm), after 16 weeks) was “unchanged in size”, the size of lesion ([3]; Example 6 patient, second-line, baseline 44 mm (liver), after 8 weeks) was 41 mm and the tumor response ([3]; Example 6 patient, second-line, through 16 weeks) was “stable disease and no progression”. The tumor response ([3]; Example 7 patient, second-line, 8-week treatment period) was “stable disease and no progression”, the size of lesion ([3]; Example 7 patient, second-line, baseline 22 mm (liver), after 8 weeks) was “unchanged in size” and the size of lesion ([3]; Example 7 patient, second-line, baseline 22 mm (liver), after additional four cycles (8 weeks)) was “unchanged in size”. The tumor response ([3]; Example 7 patient, second-line, through 16 weeks) was “no progression”, the tumor response ([3]; Example 8 patient, first-line, 8-week treatment period) was “stable disease and no progression” and the size of lesion ([3]; Example 8 patient, first-line, baseline 72 mm (liver), after 8 weeks) was 59 mm. The size of lesion ([3]; Example 8 patient, first-line, baseline 72 mm, 59 mm at 8 weeks, after 16 weeks) was 53 mm, the tumor response ([3]; Example 8 patient, first-line, through 16 weeks) was “stable disease and no progression” and the tumor response ([3]; Example 9 patient, second-line, 8-week treatment period) was “stable disease and no progression”. For the same molecule, the tumor response ([3]; Example 9 patient, second-line, 16-week treatment period) was “stable disease and no progression”, the size of lesion ([3]; Example 9 patient, second-line, baseline 57 mm (abdomen), after 8 weeks) was 56 mm and the size of lesion ([3]; Example 9 patient, second-line, baseline 57 mm, 56 mm at 8 weeks, after 16 weeks) was 57 mm. For the same molecule, the tumor response ([3]; Example 10 patient, second-line, 8-week treatment period) was “stable disease and no progression”, the tumor response ([3]; Example 10 patient, second-line, 16-week treatment period) was “stable disease and no progression” and the size of lesion ([3]; Example 10 patient, second-line, 188 mm lesion (baseline 250 mm), after 16 weeks) was “unchanged in size”. For the same molecule, the size of lesion ([3]; Example 10 patient, second-line, baseline 250 mm (abdomen), after 8 weeks) was 188 mm, the size of lesion ([3]; Example 11 patient, first-line, baseline 77 mm (liver), after 8 weeks) was 89 mm and the tumor response ([3]; Example 12 patient, second-line, 8-week treatment period) was “stable disease”. For the same molecule, the size of lesion ([3]; Example 12 patient, second-line, baseline 26 mm (lung), after 8 weeks) was 30 mm.

In the case of `Nc1nc(=O)c2c([nH]1)NCC1CN(c3ccc(C(=O)N[C@@H](CCC(=O)[O-])C(=O)[O-])cc3)CN21.[Ca+2]` (stereo partly drawn) [CoFactor, (dl)-5,10,-methylenepteroyl-monoglutamate calcium salt], the “clinical benefit, defined as stable disease or tumor response, proportion of patients” value [4] is listed as 40%, the “efficacy and safety versus leucovorin arm” value [5] is listed as “no significant differences” and the overall response rate [6] is listed as 35%.

For `Nc1nc2c(c(=O)[nH]1)N(C=O)C(CNc1ccc(C(=O)N[C@@H](CCC(=O)O)C(=O)O)cc1)CN2` (some centres unmarked) [LV, calcium salt of 5-formyl-5,6,7,8-tetrahydrofolic acid], the overall response rate ([1]; LV added to 5-FU) is given as “over 20%” and the response rate ([2]; LV added to 5-FU) is given as 21%.
